Laboratory results reported in ChEMBL document CHEMBL3988442, “University of Dundee, Small-Polar-MMV Screening Library” (2021).
Several values for one entry are separate records, joined by “and”; a condition that tells them apart may be missing. Equal values may be shown once.

Assays:
Leishmania donovani = experiment: Leishmania intramacrophage assay; type: functional, organism-based; details: for IC50: Leishmania donovani
Trypanosoma brucei = experiment: Trypanosoma brucei 72 hour study; type: functional, organism-based; details: for IC50: Trypanosoma brucei, 72 h
[1] = In vitro enzyme assay to detect hydrolysis of chlorophenol red-beta-D-[…] directly proportional to the number of Toxoplasma stably expressing beta-galactosidase; type: functional, organism-based, Toxoplasma gondii; details: for IC50: Toxoplasma gondii
[2] = test system: Mycobacterium tuberculosis; experiment: Cornell M. t heat shock assay; type: functional, organism-based; details: for IC50: Mycobacterium tuberculosis
[3] = microbe, parasite or virus in culture; details: Mycobacterium tuberculosis, 96 h, read-out: pIC50 (converted)
[4] = microbe, parasite or virus in culture; details: Mycobacterium tuberculosis, 72 h, read-out: pIC50 (converted)
Plasmodium falciparum = experiment: Calibr Malaria Delayed Death Assay SOP; type: functional, organism-based; details: for IC50: Plasmodium falciparum
[5] = target: T1, Coenzyme A biosynthesis bifunctional protein CoaBC (Mycobacterium tuberculosis (strain ATCC 25618 / H37Rv), UniProt P9WNZ1); experiment: Biomol Green assay for MtCoaBC inhibitor, OD650 read; type: functional
T1 sequence (P9WNZ1 whole entry): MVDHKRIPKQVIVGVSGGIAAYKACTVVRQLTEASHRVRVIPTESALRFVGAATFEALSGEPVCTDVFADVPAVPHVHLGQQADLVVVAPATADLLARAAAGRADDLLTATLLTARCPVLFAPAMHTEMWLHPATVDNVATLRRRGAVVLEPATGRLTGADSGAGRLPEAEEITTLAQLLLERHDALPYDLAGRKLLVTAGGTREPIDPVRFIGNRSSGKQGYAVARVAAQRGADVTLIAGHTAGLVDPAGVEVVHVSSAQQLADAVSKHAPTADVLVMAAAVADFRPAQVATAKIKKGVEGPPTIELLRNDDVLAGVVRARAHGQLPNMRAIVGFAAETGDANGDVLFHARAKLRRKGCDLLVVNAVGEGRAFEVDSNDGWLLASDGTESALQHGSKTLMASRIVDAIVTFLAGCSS

Histidine--tRNA ligase = target: T2, Histidine--tRNA ligase (Leishmania infantum, UniProt A4I591); experiment: Leishmania infantum Histidine tRNA synthetase (LdHisRS); type: functional
T2 sequence (A4I591 whole entry): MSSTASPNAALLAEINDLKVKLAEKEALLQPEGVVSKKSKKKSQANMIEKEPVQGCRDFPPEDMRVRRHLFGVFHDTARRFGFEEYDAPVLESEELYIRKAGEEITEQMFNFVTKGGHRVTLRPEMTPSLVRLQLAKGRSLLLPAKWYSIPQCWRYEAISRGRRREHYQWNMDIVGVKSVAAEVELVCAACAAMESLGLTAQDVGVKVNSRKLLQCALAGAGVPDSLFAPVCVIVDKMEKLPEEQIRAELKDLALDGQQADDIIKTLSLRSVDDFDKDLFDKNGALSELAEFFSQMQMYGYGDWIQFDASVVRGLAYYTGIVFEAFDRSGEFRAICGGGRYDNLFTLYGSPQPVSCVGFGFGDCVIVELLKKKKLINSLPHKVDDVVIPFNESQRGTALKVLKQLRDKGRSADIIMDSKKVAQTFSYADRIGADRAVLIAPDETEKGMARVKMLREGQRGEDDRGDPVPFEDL

ClpP1P2 = ClpP1P2 (Mycobacterium tuberculosis (strain ATCC 25618 / H37Rv), UniProt P9WPC3+P9WPC5); experiment: in vitro assay to detect presence of AMC directly proportional to the activity of ClpP1P2. GHDDI collaboration.; type: functional
Chain of ClpP1P2 (P9WPC5 whole entry): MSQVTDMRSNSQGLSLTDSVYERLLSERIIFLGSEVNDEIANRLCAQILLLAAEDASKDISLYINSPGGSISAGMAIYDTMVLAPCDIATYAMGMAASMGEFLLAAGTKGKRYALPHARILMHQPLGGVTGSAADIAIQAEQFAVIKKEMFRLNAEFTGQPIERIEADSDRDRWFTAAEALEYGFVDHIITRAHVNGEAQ
Chain of ClpP1P2 (P9WPC3 whole entry): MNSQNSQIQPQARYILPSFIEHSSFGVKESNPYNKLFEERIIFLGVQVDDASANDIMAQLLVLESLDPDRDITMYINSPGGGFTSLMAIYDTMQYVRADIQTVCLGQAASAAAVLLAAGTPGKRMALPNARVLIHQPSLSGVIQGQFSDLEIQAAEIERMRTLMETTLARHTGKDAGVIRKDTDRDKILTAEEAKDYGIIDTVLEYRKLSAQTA

Wolbachia pipientis = experiment: Anti-Wolbachia Cell-Based Screen; type: functional
Tryptophan--tRNA ligase = Tryptophan--tRNA ligase (Mycobacterium tuberculosis (strain ATCC 25618 / H37Rv), UniProt P9WFT3); experiment: Biochemical assay for Mt-TrpRS; type: functional
Chain of Tryptophan--tRNA ligase (P9WFT3 whole entry): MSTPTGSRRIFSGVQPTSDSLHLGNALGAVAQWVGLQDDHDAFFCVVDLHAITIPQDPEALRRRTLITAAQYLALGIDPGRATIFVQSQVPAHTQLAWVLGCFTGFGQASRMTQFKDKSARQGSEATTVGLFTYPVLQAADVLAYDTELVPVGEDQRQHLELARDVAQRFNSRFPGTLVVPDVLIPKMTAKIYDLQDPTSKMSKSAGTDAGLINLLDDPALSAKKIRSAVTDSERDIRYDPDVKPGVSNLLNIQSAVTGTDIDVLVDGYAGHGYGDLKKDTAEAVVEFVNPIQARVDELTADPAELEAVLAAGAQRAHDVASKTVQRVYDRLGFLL

Row | Compound | pIC50 (Leishmania donovani) | IC50 (Leishmania donovani) [µM] | pIC50 (Trypanosoma brucei) | IC50 (Trypanosoma brucei) [µM] | IC50 [3] [µM] | IC50 [4] [µM] | other results
1 | CC(C)c1cc(=O)[nH]c(-n2nc(C3CC3)cc2N)n1 | 4.627 | 40.3 | 5.692 and 5.673 | 2.09 | 11.5 | 12.5 | pIC50 [1]: 6.102 and 5.757; IC50 [2]: 4.63 µM
2 | CN(Cc1cccc(O)c1)CC1CCCN(CCc2ccc(Cl)cc2)C1 (stereo not given) | 5.277 and 4.854 | – | 5.504 and 5.492 | 3.82 | – | – | pIC50 (Plasmodium falciparum): 6.224; IC50 (Plasmodium falciparum): 0.634 µM
3 | CCCc1cc(=O)[nH]c(-n2nc(C3CC3)cc2N)n1 | 4.51 | 39.6 | 5.268 and 5.368 | 5.23 | 23.8 | 16.1 | pIC50 [1]: 5.649; IC50 [1]: 1.95 µM; IC50 [2]: 6.14 µM
4 | FC1(F)CCN(Cc2cccnc2)CC12CCN(c1ccccc1)C2.O=C(O)C(F)(F)F.O=C(O)C(F)(F)F.O=C(O)C(F)(F)F (stereo not given) | – | – | 5.234 and 5.17 | 6.05 | 12.5 | 43.8 | IC50 [5]: > 30.2 µM; IC50 (Histidine--tRNA ligase): 13.6 µM and 18.6 µM; pIC50 (Plasmodium falciparum): 5.955; IC50 (Plasmodium falciparum): 1.16 µM
5 | Clc1cccc(C2CCN(c3ncnc4c3CCNC4)C2)c1 (stereo not given) | 4.674 | 23.9 | 4.718 and 4.683 | 19.9 | 29.6 | > 50.1 | –
6 | Cc1[nH]/c(=N\C(=O)c2csc(NCC(C)C)n2)sc1C | 4.614 | 19.4 | 5.208 and 5.15 | 6.25 | – | – | IC50 [1]: 4.62 µM
7 | COc1ccc2[nH]cc(-c3ccnc(NC4CCCC4)n3)c2c1 | 4.561 | 21.8 | 5.019 and 4.85 | 14.6 | – | – | IC50 [1]: 2.65 µM
8 | Cc1cc(C)n(CCCn2cncc2-c2ccc3c(c2)CC(C)N3C)n1.Cl (stereo not given) | – | – | 4.689 and 4.712 | 28.9 | – | – | IC50 [5]: > 30.2 µM; IC50 (Histidine--tRNA ligase): 23.7 µM and 22.2 µM; pIC50 (Plasmodium falciparum): 5.88; IC50 (Plasmodium falciparum): 1.59 µM; pIC50 [2]: 4.037; IC50 [2]: 76.7 µM; IC50 (ClpP1P2): > 100 µM
9 | CCCOc1ccccc1CCCNc1ncnc2oc(C)nc12 | 4.492 and 4.801 | – | 5.583 and 5.61 | 4.09 | > 50.1 | 25.4 | –
10 | COc1c(C)cnc(CN(C)C2CCCCC2)c1C | 4.733 | 13.3 | 5.179 and 5.161 | 6.48 | – | – | pIC50 [1]: 5.219; IC50 [1]: 4.88 µM; pIC50 (Wolbachia pipientis): 5.441; IC50 (Wolbachia pipientis; Wolbachia pipientis): 6.39 µM
11 | CCc1cc(=O)[nH]c(-n2nc(C3CC3)cc2NC(=O)C2CC2)n1 | 4.573 | 29.8 | 5.404 and 5.398 | 3.41 | 11.4 | 12.5 | pIC50 [1]: 5.904; IC50 [1]: 1.58 µM
12 | Cl.NC1CCc2nc(-c3ccncc3)nc(Nc3cccc(F)c3)c2C1 (stereo not given) | 5.181 | 5.99 | 5.636 and 5.623 | 2.41 | – | – | IC50 [1]: 3.66 µM; IC50 (Histidine--tRNA ligase): 46.3 µM and 51.2 µM; pIC50 [2]: < 4; IC50 [2]: 50.4 µM
13 | Cc1nc(C2(O)CCCNCC2)sc1CCOc1ccc(F)c(F)c1.Cl (stereo not given) | 4.936 | 11.6 | 5.175 and 5.131 | 6.99 | – | – | IC50 (Tryptophan--tRNA ligase): > 195 µM
14 | CCNC(=O)[C@@H]1C[C@@H](N)CN1Cc1ccc(Sc2ccc(C)cc2)o1 | 4.875 | 13.8 | 5.166 and 5.161 | 6.83 | – | – | –
15 | Cc1ccc(CNC(CN2CCN(C)CC2)c2ccccc2)cc1C (stereo not given) | – | 4.57 | 5.711 and 5.621 | 1.7 | – | – | –
16 | Cc1sc2nc(CCN)nc(N(C)CCCC3CCCO3)c2c1C (stereo not given) | – | > 50.1 | 4.729 and 4.748 | 22.5 | – | – | –
17 | Cc1nc(C2(O)CCCNCC2)sc1CCOc1ccc(Cl)cc1.Cl (stereo not given) | 4.792 | 8.46 | 5.216 and 5.242 | 5.07 | – | – | IC50 [1]: 11 µM
18 | CC(C)N1CCCC(C(=O)N2CCN(c3nsc4ccccc34)CC2)C1 (stereo not given) | 4.419 | 30.3 | 4.562 and 4.572 | 20.3 | – | – | –

Row | Compound | pIC50 (Leishmania donovani) | IC50 (Leishmania donovani) [µM] | pIC50 (Trypanosoma brucei) | IC50 (Trypanosoma brucei) [µM] | IC50 [3] [µM] | IC50 [4] [µM] | other results
19 | O=C(c1cc(-c2ccn(CC3CC3)n2)n2ccccc12)N1CCOCC1 | 4.802 | 18.9 | 5.586 and 5.592 and 5.253 | – | > 50.1 | 27.8 | pIC50 (Plasmodium falciparum): 5.917; IC50 (Plasmodium falciparum): 1.01 µM; IC50 (ClpP1P2): > 100 µM
20 | CN(C)S(=O)(=O)c1ccc(-c2nc(C#N)c(NC(C)(C)C)o2)o1.Cl | – | > 50.1 | 4.737 and 4.726 | 18.4 | – | – | IC50 [1]: 7.65 µM; IC50 [2]: 11.3 µM; IC50 (ClpP1P2): > 100 µM
21 | Cc1nc2c(c(NCc3cc4ccccc4s3)n1)CCNCC2 | 5.15 | 5.79 | 5.606 and 5.633 | 2.29 | 38 | > 50.1 | –
22 | Cc1c(C)c(C)c2[nH]c(-c3cn(C4CCNCC4)nn3)nc2c1C | 4.511 | 19.8 | 5.199 and 5.184 | 6.01 | – | – | –
23 | Nc1cc(N2CCC(c3cc(Cc4ccccc4)n[nH]3)CC2)ccn1 | 4.671 | 17.4 | 5.138 and 5.184 | 6.85 | – | – | pIC50 [1]: 5.141; IC50 [1]: 4.92 µM; IC50 (Histidine--tRNA ligase): 69.6 µM and 73.8 µM
24 | CC(N)C(=O)N1CCC(Oc2cccc(C(F)(F)F)c2)CC1 (stereo not given) | 4.638 | 19.3 | 5.074 and 4.999 | 13.2 | – | – | –
25 | CCN1CC(CN(C)c2cc(C)nc(N)n2)Oc2ccccc21 (stereo not given) | 4.519 | 35.1 | 4.724 and 4.705 | 19.3 | – | – | –
26 | Cc1ccc(CNC2CCN(CCc3ccncc3)CC2)cc1C | 4.955 | 15.6 | 5.061 and 5.288 | 6.7 | – | – | –
27 | CCCc1ccc(C(C)Nc2ncnc3c2CCNC3)cc1 (stereo not given) | 4.733 | 21.6 | 4.735 and 4.73 | 20.2 | – | – | –
28 | CCC1CN(C(=O)c2csc3nc(-c4ccc(Cl)cc4)cn23)CCN1 (stereo not given) | 4.877 | 12.4 | 5.161 and 5.156 | 7.75 | 49.2 | 17.9 | –
29 | Cc1[nH]/c(=N\C(=O)c2csc(NC3CC3)n2)sc1C | 4.559 | 47.7 | 5.049 and 4.932 | 13.2 | – | – | –
30 | Cl.NC1CCc2nc(-c3cccnc3)nc(Nc3ccc(F)cc3)c2C1 (stereo not given) | 5.001 | 8.3 | 5.072 and 4.886 | 7.84 | 48.6 | 22.2 | pIC50 (Plasmodium falciparum): 6.698; IC50 (Plasmodium falciparum): 0.204 µM; pIC50 [2]: 4.893; IC50 [2]: 6.43 µM
31 | CCN(Cc1c(F)cccc1Cl)c1cc(C2CCNCC2)nc(C)n1 | 5.445 | 3.56 | 5.239 and 5.238 | 4.96 | 24.4 | 37.4 | IC50 [1]: 4.56 µM; pIC50 (Plasmodium falciparum): 6.254; IC50 (Plasmodium falciparum): 0.495 µM
32 | CN1[C@H]2CC[C@@H]1CN(C(=O)c1ccc(-c3ccccc3)[nH]1)CC2 | 4.659 | 30.6 | 4.853 and 4.971 | 9.62 | – | – | –
33 | CCOC(=O)N1CC2(CCNCC2)c2cc(Cl)ccc21.Cl | 4.68 | 22.3 | 4.722 and 4.602 | 20.3 | – | – | –
34 | CC(Nc1ncnc2c1CCNC2)c1ccc2c(c1)CCCC2 (stereo not given) | 4.725 | 25 | 4.894 and 4.867 | 8.18 | – | – | –
35 | CC(Nc1ncnc2c1CCNC2)c1ccc(C(C)(C)C)cc1 (stereo not given) | 4.856 | 19.6 | 4.656 and 4.706 | 20.6 | – | – | –
